According to US10899785B2, “Aminoglycoside derivatives and uses thereof in treating genetic disorders” (Eloxx Pharmaceuticals Ltd., priority 2015, dated 2021):
Converted amounts (≈) assume the structure as drawn. Where two headings read alike, the source gives them in different places.

Tests used:
[1] = test system: eukaryotic cytoplasmic ribosome; assay: Eukaryotic in vitro translation inhibition, TNT T7 Quick Coupled Transcription/Translation System, luciferase; type: biochemical; details: NB156 vs NB74, NB157 vs NB124
Procedure: Prokaryotic in vitro translation inhibition by the different aminoglycosides was quantified in coupled transcription/translation assays by using E. coli S30 extract for circular DNA with the pBESTluc plasmid (Promega), according to the manufacturer's protocol. Translation reactions (25 μL) that contained variable concentrations of the tested aminoglycoside were incubated at 37° C. for 60 minutes, cooled on ice for 5 minutes, and diluted with a dilution reagent (tris-phosphate buffer (25 mM, pH 7.8), DTT (2 mM), 1,2-diaminocyclohexanetetraacetate (2 mM), glycerol (10%), Triton X-100 (1%) and BSA (1 mg mL-1)) into 96-well plates. Eukaryotic in vitro translation inhibition was quantified by use of TNT® T7 Quick Coupled Transcription/Translation System with a luciferase T7 control DNA plasmid (Promega), according to the manufacturer protocol. […] In both prokaryotic and eukaryotic systems the luminescence was measured immediately after the addition of the Luciferase Assay Reagent (50 μL; Promega), and the light emission was recorded with a FLx800 Fluorescence Microplate Reader (Biotek). […]
In all biological tests, all AGs were in their sulfate salt forms, and the concentrations refer to the free amine form of each AG. […] Minimal inhibitory concentration (MIC) values were determined by using the double-microdilution method.

[2] = test system: nonsense constructs R3X and R245X (USH1), Q70X (HS), G542X (CF); assay: Dual luciferase in vitro readthrough assay, p2Luc plasmids, TNT Reticulocyte Lysate; type: biochemical; details: all mutations tested: R3X, R245X, Q70X, G542X; FIGS. 11A-D
Source text: DNA fragments derived from PCDH15, CFTR, and IDUA cDNAs, including the tested nonsense mutation or the corresponding wild type (wt) codon, and four to six upstream and downstream flanking codons were created by annealing the following pairs of complementary oligonucleotides:
Fragments were inserted in frame into the polylinker of the p2Luc plasmid between either BamHI and SacI (p.R3X and p.R245X) or SalI and SacI (all the rest) restriction sites. For the in vitro readthrough assays, the obtained plasmids, with addition of the tested aminoglycosides were transcribed and translated using the TNT Reticulocyte Lysate Quick Coupled Transcription/Translation System. Luciferase activity was determined after 90 minutes of incubation at 30° C., using the Dual Luciferase Reporter Assay System (Promega™).
Activity was tested using a collection of dual-luciferase reporter plasmids, containing different sequence contests around premature stop codons derived from the PCDH15, CFTR, and IDUA genes that underline USH1, CF, and MPS I-H, respectively. The exemplified nonsense reporters were R3X and R245X for USH1, G542X for CF, and Q70X for MPS I-H.

[3] = test system: prokaryotic ribosome (E. coli S30 extract); assay: Prokaryotic in vitro translation inhibition, coupled transcription/translation, E. coli S30 extract, pBESTluc; type: biochemical; details: from IC50^Pro and MIC values of Tables 4 and 6
Procedure: Prokaryotic in vitro translation inhibition by the different aminoglycosides was quantified in coupled transcription/translation assays by using E. coli S30 extract for circular DNA with the pBESTluc plasmid (Promega), according to the manufacturer's protocol. Translation reactions (25 μL) that contained variable concentrations of the tested aminoglycoside were incubated at 37° C. for 60 minutes, cooled on ice for 5 minutes, and diluted with a dilution reagent (tris-phosphate buffer (25 mM, pH 7.8), DTT (2 mM), 1,2-diaminocyclohexanetetraacetate (2 mM), glycerol (10%), Triton X-100 (1%) and BSA (1 mg mL-1)) into 96-well plates. Eukaryotic in vitro translation inhibition was quantified by use of TNT® T7 Quick Coupled Transcription/Translation System with a luciferase T7 control DNA plasmid (Promega), according to the manufacturer protocol. Translation reactions (25 μL) containing variable concentrations of the tested aminoglycoside were incubated at 30° C. for 60 minutes, cooled on ice for 5 minutes, diluted with the dilution reagent and transferred into 96-well plates. In both prokaryotic and eukaryotic systems the luminescence was measured immediately after the addition of the Luciferase Assay Reagent (50 μL; Promega), and the light emission was recorded with a FLx800 Fluorescence Microplate Reader (Biotek). The half-maximal inhibition concentration (IC50) values were obtained from fitting concentration-response curves to the data of at least two independent experiments by using Grafit 5 software.
(§1) In all biological tests, all AGs were in their sulfate salt forms, and the concentrations refer to the free amine form of each AG. The eukaryotic and prokaryotic half-maximal-inhibition values (IC50^Euk and IC50^Pro) were quantified in coupled transcription/translation assays by using active luciferase detection as previously described. Minimal inhibitory concentration (MIC) values were determined by using the double-microdilution method.

B. subtilis ATCC-6633 = assay: Antibacterial activity, MIC by double-microdilution; type: cell-based; details: Bacillus subtilis
Procedure: (§2) Comparative antibacterial activities were determined in two representative strains of Gram-negative (E. coli R477-100) and Gram-positive (B. subtilis ATCC-6633) bacteria, by measuring the MIC values using the double-microdilution method according to the National Committee for Clinical Laboratory Standards (NCCLS) (NCCLS. National Committee for Clinical Laboratory Standards, Performance standards for antimicrobial susceptibility testing. Fifth information supplement: Approved Standard M100-S5; Villanova, Pa.: NCCLS, 1994.).
as §1

E. coli R477-100 = assay: as above; type: cell-based; details: Escherichia coli, R477100, read-out: Antibacterial Activity MIC E. Coli R 477/100
Procedure: as §2, §1

[4] = test system: stop codon mutations of Table 5; assay: Dual-luciferase readthrough of a broad arsenal of stop codon mutations; type: biochemical; details: all tested mutations
Procedure: In these assays, the readthrough of a broad arsenal of stop codon mutations in the presence of NB156 and NB157 was tested. Briefly, NB156 and NB157 were tested at escalating doses for their read-through properties towards the nonsense mutation using the wild-type (WT) sequence of each specific complementary DNA (cDNA) as a control, and plasmids bearing the stop codon mutations in a dual-luciferase assay. DNA fragments derived from different cDNAs were prepared using either the WT or nonsense mutation, in which the sequences from the mutant or wild-type codon were surrounded by four to six upstream and downstream flanking codons. The cDNA sequence was inserted into the polylinker of the p2luc plasmid for each sequence.

human fibroblast cells = details: against human fibroblast cells; cited from earlier work

In the case of `NC[C@H]1O[C@@H](O[C@@H]2[C@@H](O)[C@H](N)C[C@H](N)[C@H]2O[C@H]2O[C@H]([C@H](O)CO)[C@@H](O)[C@H](O)[C@H]2N)[C@@H](O)[C@H]1O` [NB156, (2R, 3S, 4R, 5R, 6S)-5-amino-6-(((1R, 2R, 3S, 4R, 6S)-4,6-diamino-2-(((2S, 3S, 4R, 5R)-5-(aminomethyl)-3,4-dihydroxytetrahydrofuran-2-yl)oxy)-3-hydroxycyclohexyl)oxy)-2-((R)-1,2-dihydroxyethyl)tetrahydro-2H-pyran-3,4-diol], the “fold more specific to the eukaryotic ribosome than structurally related compound” value [1] is reported as 1.85 fold, the “readthrough activity compared with gentamicin” value [2] is reported as “significantly better than that of the clinical drug gentamicin” and the “readthrough activity compared with structurally related compound” value [2] is reported as “substantially better than that of the structurally related NB74”. The “prokaryotic ribosome/protein synthesis inhibition and subsequent antibacterial activity compared with structurally related compound” value [3] was “very similar to those of their structurally related Compounds NB74 and NB124”, the MIC (B. subtilis ATCC-6633; ATCC6633, Table 4, read-out: Antibacterial Activity MIC B. Subtilis ATCC6633) was 34 µM (≈ 16.5 µg/mL) and the MIC (E. coli R477-100) was over 273 µM. For the same molecule, the “stop-codon mutation readthrough activity compared with NB74” value [4] was “more active than NB74”.

In the case of `CN[C@@H]1[C@@H](O)[C@@H](O[C@@H]2[C@@H](O)[C@H](O[C@H]3O[C@H]([C@@H](C)O)[C@@H](O)[C@H](O)[C@H]3N)[C@@H](N)C[C@H]2N)OC[C@]1(C)O` [Compound G418, geneticin, reference compound], the LD50 (human fibroblast cells) is given as 0.04 mg/mL, the MIC (B. subtilis ATCC-6633; ATCC6633, read-out: Antibacterial Activity MIC B. Subtilis ATCC6633) is given as under 1.25 µM and the MIC (E. coli R477-100) is given as 9 µM (≈ 4.47 µg/mL).
